Measured values: PubChem BioAssay AID1919002 (Molecular Pharmacology Branch, DTP, NCI, 2023)

System: 743489-274-T-PDC complex spheroid growth
Assay: Anticancer human tumor 743489-274-T-PDC patient-derived renal cell carcinoma cell line growth inhibition [AhR]
Conditions: for IC50: curve of first compound; for viability, T/C: stronger effect = lower value
Excerpt: Multicellular complex tumor spheroid response to aryl hydrocarbon receptor antagonists in combination with a variety of drugs and investigational agents in selected tumor cell lines
The current study was undertaken to assess response to aryl hydrocarbon receptor antagonists in combination with standard-of-care drugs and investigational agents in solid tumor complex spheroid models. Complex spheroids include a stromal component modeled by human endothelial cells (HUVEC) and fibroblasts modeled by human mesenchymal stem cells (MSCs). The concentration ranges selected for each drug and investigational agent were based upon clinically achievable concentrations if the clinical Cmax of the agent was known.
Compounds. The drugs and investigational agents: BAY 2416964 (NSC825713), GNF351 (NSC835774), CH-223191 (NSC835775), CPI-455 (NSC825282), aza-TdCyd (NSC777586), decitabine (NSC127716), belinostat (NSC758774), entinostat (NSC756642), pevonedistat (NSC761192), tazemetostat (NSC777109), talazoparib (NSC765396), olaparib (NSC753686), selinexor (NSC780203), nedisertib (M3814, NSC802822), bortezomib (NSC756655), venetoclax (NSC766270), doxorubicin (NSC123127), elimusertib (BAY189344, NSC800525), ceralasertib (AZD6738, NSC777638), TAK-243 (NSC785004), alisertib (NSC759677), etoposide (NSC141540), topotecan (NSC609699), eribulin (NSC707389), gemcitabine (NSC613327), carboplatin (NSC241240), cisplatin (NSC119875), and SN-38 (NSC673596) were obtained from the National Cancer Institute (NCI) Developmental Therapeutics Program Chemical Repository (32). The FDA-approved anticancer drug set is available from the Developmental Therapeutics Program at https://dtp.cancer.gov/organization/dscb/obtaining/available plates.htm. […] The stock solutions were prepared in dimethyl sulfoxide (DMSO, Sigma-Aldrich, St. Louis, MO, cat. D2650), except for the platinum compounds which were prepared in saline (Quality Biological, Gaithersburg, MD, cat. 114-055-101), at 800-fold the tested concentration and stored at -70 degrees C prior to their use. All drugs and investigational agents were tested over a range starting from a high concentration at or near the clinical Cmax and decreasing in half-log increments. If the clinical Cmax for an agent had not been determined, the highest concentration tested was 10 microM (Table 1).
Cell Culture. All cells were maintained in an incubator at 37 degrees C and 5% CO2 with 95% humidity. The PDC lines were cultured according to standard operating procedures established by the NCI PDMR (https://pdmr.cancer.gov). Briefly, all PDCs were thawed and cultured in Matrigel-coated flasks prepared with a working solution of 1X Ham's F-12 nutrient mix, without supplementation (Invitrogen, Waltham, MA, cat. 11765054), 100 U/mL penicillin-streptomycin (Invitrogen, cat. 15140122), and 2.5% Matrigel (Corning Inc., Corning, NY, cat. 354248) for the first three passages. All PDCs were cultured in complete DMEM/F-12 media containing advanced DMEM/F-12 (Invitrogen, cat. 12634028), 4.9% defined fetal bovine serum, heat inactivated (HyClone Laboratories Inc., Logan, UT, cat. SH30070.03HI), 389 ng/mL hydrocortisone (Sigma-Aldrich, cat. H4001), 9.7 ng/mL human EGF recombinant protein (Invitrogen, cat. PHG0313), 23.4 microg/mL adenine (Sigma-Aldrich, cat. A2786), 97.3 U/mL penicillin-streptomycin (Invitrogen, cat. 15140122), 1.9 mM L-glutamine (Invitrogen, cat. 25030081), and 9.7 microM Y-27632 dihydrochloride (Tocris Bioscience, Bristol, United Kingdom, cat. 1254). The PDCs were cultured in complete DMEM/F12 media without 10 microM Y-27632 dihydrochloride for at least two passages prior to the screen. The established cell lines NCI-H1341 and […] were cultured in DMEM/F-12, HEPES (Invitrogen, cat. 11330032), 5% defined fetal bovine serum (HyClone Laboratories Inc., cat. SH30070.03), ITS premix universal culture supplement [insulin (5 microg/mL), transferrin (5 microg/mL), and selenious acid (5 ng/mL)] […]

[1] = second compound 0.1 µM, first compound 0.00316 µM
[2] = second compound 0.1 µM, first compound 0.01 µM
[3] = second compound 0.1 µM, first compound 0.0316 µM
[4] = second compound 0.1 µM, first compound 0.1 µM
[5] = second compound 0.316 µM, first compound 0.00316 µM
[6] = second compound 0.316 µM, first compound 0.01 µM
[7] = second compound 0.316 µM, first compound 0.0316 µM
[8] = second compound 0.316 µM, first compound 0.1 µM
[9] = second compound 1 µM, first compound 0.00316 µM
[10] = second compound 1 µM, first compound 0.01 µM
[11] = second compound 1 µM, first compound 0.0316 µM
[12] = second compound 1 µM, first compound 0.1 µM
[13] = second compound 3.16 µM, first compound 0.00316 µM
[14] = second compound 3.16 µM, first compound 0.01 µM
[15] = second compound 3.16 µM, first compound 0.0316 µM
[16] = second compound 3.16 µM, first compound 0.1 µM
[17] = second compound 10 µM, first compound 0.00316 µM
[18] = second compound 10 µM, first compound 0.01 µM
[19] = second compound 10 µM, first compound 0.0316 µM
[20] = second compound 10 µM, first compound 0.1 µM
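Also: spheroids exposed to agents for 7 days before readout.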
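For viability, T/C in this document: 100% = DMSO vehicle control wells.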

Cn1ncnc1C1c2n[nH]c(=O)c3cc(F)cc(c23)NC1c1ccc(F)cc1 (stereo not given) + Cc1cncc(-c2nc(NCCc3c[nH]c4ccccc34)c3ncn(C(C)C)c3n2)c1
IC50 (second compound 0.1 µM): > 100 nM | IC50 (second compound 0.316 µM): > 100 nM | IC50 (second compound 1 µM): > 100 nM | IC50 (second compound 3.16 µM): > 100 nM | IC50 (second compound 10 µM): > 100 nM | viability, T/C (second compound 0.1 µM, first compound 0.000316 µM): 95.5% | viability, T/C (second compound 0.1 µM, first compound 0.001 µM): 104% | viability, T/C [1]: 90.8% | viability, T/C [2]: 87.9% | viability, T/C [3]: 89.6% | viability, T/C [4]: 98.8% | viability, T/C (second compound 0.316 µM, first compound 0.000316 µM): 88.8% | viability, T/C (second compound 0.316 µM, first compound 0.001 µM): 91.8% | viability, T/C [5]: 96.1% | viability, T/C [6]: 96.2% | viability, T/C [7]: 93.3% | viability, T/C [8]: 95.7% | viability, T/C (second compound 1 µM, first compound 0.000316 µM): 103% | viability, T/C (second compound 1 µM, first compound 0.001 µM): 96% | viability, T/C [9]: 97% | viability, T/C [10]: 101% | viability, T/C [11]: 96.7% | viability, T/C [12]: 88.2% | viability, T/C (second compound 3.16 µM, first compound 0.000316 µM): 121% | viability, T/C (second compound 3.16 µM, first compound 0.001 µM): 102% | viability, T/C [13]: 99.2% | viability, T/C [14]: 114% | viability, T/C [15]: 99.3% | viability, T/C [16]: 94.5% | viability, T/C (second compound 10 µM, first compound 0.000316 µM): 128% | viability, T/C (second compound 10 µM, first compound 0.001 µM): 117% | viability, T/C [17]: 139% | viability, T/C [18]: 121% | viability, T/C [19]: 111% | viability, T/C [20]: 131%

Nc1ncn(C2CC(O)C(CO)O2)c(=O)n1 (stereo not given) + Cc1ccccc1N=Nc1ccc(NC(=O)c2ccnn2C)c(C)c1
IC50 (second compound 0.1 µM): > 1000 nM | IC50 (second compound 0.316 µM): > 1000 nM | IC50 (second compound 1 µM): > 1000 nM | IC50 (second compound 3.16 µM): > 1000 nM | IC50 (second compound 10 µM): > 1000 nM | viability, T/C [1]: 86.2% | viability, T/C [2]: 91.2% | viability, T/C [3]: 88.6% | viability, T/C [4]: 92.5% | viability, T/C (second compound 0.1 µM, first compound 0.316 µM): 103% | viability, T/C (second compound 0.1 µM, first compound 1 µM): 87.1% | viability, T/C [5]: 107% | viability, T/C [6]: 89.2% | viability, T/C [7]: 89.8% | viability, T/C [8]: 87.2% | viability, T/C (second compound 0.316 µM, first compound 0.316 µM): 87.8% | viability, T/C (second compound 0.316 µM, first compound 1 µM): 84.7% | viability, T/C [9]: 89.7% | viability, T/C [10]: 99.1% | viability, T/C [11]: 101% | viability, T/C [12]: 79.8% | viability, T/C (second compound 1 µM, first compound 0.316 µM): 101% | viability, T/C (second compound 1 µM, first compound 1 µM): 87.9% | viability, T/C [13]: 94.8% | viability, T/C [14]: 81.7% | viability, T/C [15]: 83.9% | viability, T/C [16]: 74.8% | viability, T/C (second compound 3.16 µM, first compound 0.316 µM): 88.9% | viability, T/C (second compound 3.16 µM, first compound 1 µM): 82.8% | viability, T/C [17]: 92.7% | viability, T/C [18]: 88% | viability, T/C [19]: 90% | viability, T/C [20]: 96.2% | viability, T/C (second compound 10 µM, first compound 0.316 µM): 80.1% | viability, T/C (second compound 10 µM, first compound 1 µM): 82.8%
